Measurements reported in the NIST ThermoML archive (doi:10.1021/je0602263).
Numbers after ± are expanded uncertainties.

Test: xn = mol fraction of the nth substance listed
Conditions: 298.15 K, 101 kPa, Liquid

CC(C)CC(C)(C)C [2,2,4-trimethylpentane] + COC(=O)OC
Conditions	mass density [kg/m3]
x2 = 0	688.04 ± 0.62

c1ccccc1 [benzene] + COC(=O)OC
Conditions	mass density [kg/m3]
x2 = 0	873.56 ± 0.34

COC(=O)OC [dimethyl carbonate] + CC(C)CC(C)(C)C
Conditions	mass density [kg/m3]
x1 = 0.0497	696.81 ± 0.6
x1 = 0.1	706.22 ± 0.59
x1 = 0.15	716.12 ± 0.57
x1 = 0.2001	726.95 ± 0.56
x1 = 0.2499	738.38 ± 0.54
x1 = 0.2998	750.67 ± 0.53
x1 = 0.3498	763.75 ± 0.51
x1 = 0.4004	777.96 ± 0.49
x1 = 0.4498	792.89 ± 0.48
x1 = 0.5002	809.29 ± 0.46
x1 = 0.5499	826.46 ± 0.44
x1 = 0.5998	845.2 ± 0.41
x1 = 0.6502	865.43 ± 0.38
x1 = 0.7	887.02 ± 0.34
x1 = 0.75	910.31 ± 0.31
x1 = 0.8	935.94 ± 0.27
x1 = 0.8499	963.69 ± 0.23
x1 = 0.8999	993.77 ± 0.19
x1 = 0.9498	1026.79 ± 0.21
x1 = 1	1063.19 ± 0.25

COC(=O)OC [dimethyl carbonate] + CCCCCCC
Conditions	mass density [kg/m3]
x1 = 0.0501	690.16 ± 0.61
x1 = 0.0999	700.47 ± 0.6
x1 = 0.15	711.7 ± 0.58
x1 = 0.1998	723.65 ± 0.56
x1 = 0.2501	736.28 ± 0.55
x1 = 0.2999	749.59 ± 0.53
x1 = 0.3501	763.95 ± 0.51
x1 = 0.4	779.05 ± 0.49
x1 = 0.4499	795.07 ± 0.48
x1 = 0.5001	812.18 ± 0.46
x1 = 0.5498	830.25 ± 0.43
x1 = 0.6	849.67 ± 0.4
x1 = 0.6499	870.23 ± 0.37
x1 = 0.7001	892.23 ± 0.34
x1 = 0.75	915.72 ± 0.3
x1 = 0.8	941.09 ± 0.26
x1 = 0.8501	968.3 ± 0.22
x1 = 0.9001	997.61 ± 0.18
x1 = 0.9501	1029.09 ± 0.21
x1 = 1	1063.19 ± 0.25

COC(=O)OC [dimethyl carbonate] + Cc1ccccc1
Conditions	mass density [kg/m3]
x1 = 0.0498	869.9 ± 0.34
x1 = 0.0998	877.68 ± 0.33
x1 = 0.15	885.75 ± 0.32
x1 = 0.1999	893.96 ± 0.31
x1 = 0.2498	902.39 ± 0.3
x1 = 0.2999	911.1 ± 0.29
x1 = 0.3498	919.98 ± 0.28
x1 = 0.4	929.22 ± 0.27
x1 = 0.4498	938.57 ± 0.26
x1 = 0.4999	948.26 ± 0.25
x1 = 0.5499	958.27 ± 0.24
x1 = 0.5999	968.51 ± 0.22
x1 = 0.65	979.06 ± 0.21
x1 = 0.7	989.94 ± 0.19
x1 = 0.7499	1001.14 ± 0.18
x1 = 0.8001	1012.77 ± 0.19
x1 = 0.8501	1024.73 ± 0.2
x1 = 0.8998	1037.03 ± 0.22
x1 = 0.9502	1049.89 ± 0.23
x1 = 1	1063.19 ± 0.25

COC(=O)OC [dimethyl carbonate] + c1ccccc1
Conditions	mass density [kg/m3]
x1 = 0.0499	882 ± 0.32
x1 = 0.1	890.57 ± 0.31
x1 = 0.15	899.18 ± 0.3
x1 = 0.2001	907.93 ± 0.29
x1 = 0.2499	916.61 ± 0.28
x1 = 0.3	925.59 ± 0.27
x1 = 0.3498	934.53 ± 0.26
x1 = 0.4	943.7 ± 0.25
x1 = 0.45	952.89 ± 0.24
x1 = 0.5001	962.25 ± 0.23
x1 = 0.55	971.69 ± 0.22
x1 = 0.6	981.28 ± 0.2
x1 = 0.6499	990.96 ± 0.19
x1 = 0.7001	1000.84 ± 0.18
x1 = 0.7501	1010.88 ± 0.19
x1 = 0.8001	1021.01 ± 0.2
x1 = 0.8498	1031.36 ± 0.21
x1 = 0.8999	1041.69 ± 0.22
x1 = 0.9501	1052.35 ± 0.24
x1 = 1	1063.19 ± 0.25

CCCCCCC [heptane] + COC(=O)OC
Conditions	mass density [kg/m3]
x2 = 0	680.52 ± 0.63

Cc1ccccc1 [toluene] + COC(=O)OC
Conditions	mass density [kg/m3]
x2 = 0	862.5 ± 0.35
